Holding throughout (assay type): cell-based
Assay [1] relates to Mannheimia haemolytica MH 6357 (M7/2, reference strain, cattle infection strain). Briefly: MIC, broth-microdilution (CLSI VET01-A4), strain MH 6357. The note with it: Mannheimia haemolytica strain MH 6357, broth-microdilution; unit assumed. Put shortly: (§1)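 Serial twofold dilutions; unaided-eye turbidity scoring; lowest clear well = MIC.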
In general terms: Broth dilution looks for growth in wells or tubes with falling amounts of substance.

In assay [2] the test system is Mannheimia haemolytica MH 6374 (ATCC 33396, reference strain). The assay is described as follows: MIC, broth-microdilution (CLSI VET01-A4), strain MH 6374. Conditions: Mannheimia haemolytica strain MH 6374, broth-microdilution; unit assumed. Put shortly:
as §1

The test system of assay [3] is Mannheimia haemolytica MH 10720 (154, BRD field isolate). Briefly: MIC, broth-microdilution (CLSI VET01-A4), strain MH 10720. The note with it: Mannheimia haemolytica strain MH 10720, broth-microdilution; unit assumed. In short, it runs like this:
as §1

Assay [4] deals with Mannheimia haemolytica MH 12587 (1071, BRD field isolate, macrolide-resistance: erm+, E+). Briefly: MIC, broth-microdilution (CLSI VET01-A4), strain MH 12587. The note with it: Mannheimia haemolytica strain MH 12587, broth-microdilution; unit assumed. In short, it runs like this: as §1
Assay [5] deals with Mannheimia haemolytica MH 13065 (XB0446-6003.9, BRD field isolate). Briefly: MIC, broth-microdilution (CLSI VET01-A4), strain MH 13065. The note with it: Mannheimia haemolytica strain MH 13065, broth-microdilution; unit assumed. In short, it runs like this: as §1
Assay [6] relates to Mannheimia haemolytica MH 13093 (XB0472-6014.1, BRD field isolate). Briefly: MIC, broth-microdilution (CLSI VET01-A4), strain MH 13093. The note with it: Mannheimia haemolytica strain MH 13093, broth-microdilution; unit assumed. Put shortly: as §1
Assay [7] has as its system Pasteurella multocida PM 6267 (P 2225 (L386), reference strain, mouse infection strain). The assay is described as follows: MIC, broth-microdilution (CLSI VET01-A4), strain PM 6267. The note with it: Pasteurella multocida strain PM 6267, broth-microdilution; unit assumed. Put shortly:
as §1

Assay [8] concerns Pasteurella multocida PM 6391 (ATCC 43137, reference strain). The assay is described as follows: MIC, broth-microdilution (CLSI VET01-A4), strain PM 6391. Conditions: Pasteurella multocida strain PM 6391, broth-microdilution; unit assumed. In short, it runs like this:
as §1

Assay [9] concerns Pasteurella multocida PM 10775 (080130003051, BRD field isolate). The assay is described as follows: MIC, broth-microdilution (CLSI VET01-A4), strain PM 10775. Conditions: Pasteurella multocida strain PM 10775, broth-microdilution; unit assumed. In short, it runs like this:
as §1

Assay [10] concerns Pasteurella multocida PM 12080 (IV102277-0093, BRD field isolate). The assay is described as follows: MIC, broth-microdilution (CLSI VET01-A4), strain PM 12080. Conditions: Pasteurella multocida strain PM 12080, broth-microdilution; unit assumed. Put shortly:
as §1

This is an account of results in US11034650B2, “Compounds useful for treating a Mannheimia haemolytica or Histophilus somni infection” (Intervet Inc., priority 2016, dated 2021).

In brackets after ≈: the same amount, converted by molar mass. Bounds are passed on as bounds.

In turn, `CCCNCc1ccc(C#Cc2ccc(C(=O)N[C@H](C(=O)NO)C(C)=NOC)cc2)cc1` [Compound 387] had an MIC MH 6357 in [1] of 6.3 µg/mL (≈ 14.4 µM). In assay [2], this compound yielded an MIC MH 6374 of 6.3 µg/mL (≈ 14.4 µM). The MIC MH 10720 in assay [3] amounted to 3.1 µg/mL (≈ 7.1 µM). The compound also returned an MIC MH 12587 in assay [4] of 1.6 µg/mL (≈ 3.67 µM). This compound also gave an MIC MH 13065 in assay [5] of 6.3 µg/mL (≈ 14.4 µM). The same compound had an MIC MH 13093 in assay [6] of 3.1 µg/mL (≈ 7.1 µM). Moreover, the MIC PM 6267 in assay [7] is 25 µg/mL (≈ 57.3 µM). In assay [8], this compound had an MIC PM 6391 of 0.4 µg/mL (≈ 0.916 µM). In assay [9], the MIC PM 10775 came out at 1.6 µg/mL (≈ 3.67 µM). For the same compound, the MIC PM 12080 in assay [10] is 0.2 µg/mL (≈ 0.458 µM).
In turn, `CON=C(C)[C@H](NC(=O)c1ccc(C#Cc2ccc(CNCc3cccnc3)cc2)cc1)C(=O)NO` [Compound 388] yielded an MIC MH 6357 in [1] of 0.4 µg/mL (≈ 0.824 µM). Besides, in assay [2], the MIC MH 6374 came out at 0.8 µg/mL (≈ 1.65 µM). The same compound came in with an MIC MH 10720 in assay [3] of 0.8 µg/mL (≈ 1.65 µM). Also, in assay [4], the MIC MH 12587 came out at 0.2 µg/mL (≈ 0.412 µM). The MIC MH 13065 in [5] is 0.8 µg/mL (≈ 1.65 µM). In assay [6], this compound returned an MIC MH 13093 of 0.8 µg/mL (≈ 1.65 µM). The compound also came in with an MIC PM 6267 in assay [7] of 3.1 µg/mL (≈ 6.38 µM). The compound further registered an MIC PM 6391 in [8] of no more than 0.1 µg/mL. Besides, the MIC PM 10775 in assay [9] is 0.2 µg/mL (≈ 0.412 µM). For the same compound, the MIC PM 12080 in [10] is no more than 0.1 µg/mL.
As for `CON=C(C)[C@H](NC(=O)c1ccc(C#Cc2ccc(CNCc3ccnc(Cl)c3)cc2)cc1)C(=O)NO` [Compound 389], the MIC MH 6357 in [1] came out at 0.8 µg/mL (≈ 1.54 µM). Moreover, the MIC MH 6374 in assay [2] was determined as 1.6 µg/mL (≈ 3.08 µM). This compound also registered an MIC MH 10720 in assay [3] of 0.8 µg/mL (≈ 1.54 µM). Besides, the MIC MH 12587 in assay [4] is 0.4 µg/mL (≈ 0.769 µM). In [5], this compound registered an MIC MH 13065 of 1.6 µg/mL (≈ 3.08 µM). This compound displayed an MIC MH 13093 in assay [6] of 1.6 µg/mL (≈ 3.08 µM). In assay [7], this compound showed an MIC PM 6267 of 3.1 µg/mL (≈ 5.96 µM). This compound had an MIC PM 6391 in assay [8] of no more than 0.1 µg/mL. Further, the MIC PM 10775 in [9] came to 0.4 µg/mL (≈ 0.769 µM). In [10], this compound yielded an MIC PM 12080 of 0.4 µg/mL (≈ 0.769 µM).
`CON=C(C)[C@H](NC(=O)c1ccc(C#Cc2ccc(CNCc3ccccn3)cc2)cc1)C(=O)NO` [Compound 390] displayed an MIC MH 6357 in [1] of 0.4 µg/mL (≈ 0.824 µM). In assay [2], this compound came in with an MIC MH 6374 of 1.6 µg/mL (≈ 3.3 µM). Also, the MIC MH 10720 in [3] is 0.8 µg/mL (≈ 1.65 µM). The compound also yielded an MIC MH 12587 in assay [4] of 0.2 µg/mL (≈ 0.412 µM). In [5], the MIC MH 13065 came to 0.8 µg/mL (≈ 1.65 µM). This compound also gave an MIC MH 13093 in [6] of 0.8 µg/mL (≈ 1.65 µM). The MIC PM 6267 in assay [7] was 3.1 µg/mL (≈ 6.38 µM). Besides, in [8], the MIC PM 6391 is no more than 0.1 µg/mL. This compound also had an MIC PM 10775 in [9] of 0.4 µg/mL (≈ 0.824 µM). In assay [10], this compound showed an MIC PM 12080 of 0.2 µg/mL (≈ 0.412 µM).
The compound `CON=C(C)[C@H](NC(=O)c1ccc(C#Cc2ccc(CNCc3ccco3)cc2)cc1)C(=O)NO` [Compound 391] returned an MIC MH 6357 in [1] of 0.4 µg/mL (≈ 0.843 µM). For the same compound, in assay [2], the MIC MH 6374 came out at 0.4 µg/mL (≈ 0.843 µM). In addition, the MIC MH 10720 in assay [3] came to 0.4 µg/mL (≈ 0.843 µM). Further, the MIC MH 12587 in assay [4] is no more than 0.1 µg/mL. This compound also displayed an MIC MH 13065 in assay [5] of 0.4 µg/mL (≈ 0.843 µM). The compound also yielded an MIC MH 13093 in assay [6] of 0.4 µg/mL (≈ 0.843 µM). Besides, the MIC PM 6267 in assay [7] was determined as 1.6 µg/mL (≈ 3.37 µM). Moreover, in assay [8], the MIC PM 6391 is no more than 0.1 µg/mL. The compound also came in with an MIC PM 10775 in assay [9] of 0.4 µg/mL (≈ 0.843 µM). In assay [10], this compound returned an MIC PM 12080 of no more than 0.1 µg/mL.
With `CON=C(C)[C@H](NC(=O)c1ccc(C#Cc2ccc(CNCc3cccs3)cc2)cc1)C(=O)NO` [Compound 392], the MIC MH 6357 in assay [1] turned out to be 0.4 µg/mL (≈ 0.815 µM). In [2], this compound came in with an MIC MH 6374 of 0.4 µg/mL (≈ 0.815 µM). In [3], the MIC MH 10720 turned out to be 0.4 µg/mL (≈ 0.815 µM). The compound further gave an MIC MH 12587 in [4] of no more than 0.1 µg/mL. The compound further came in with an MIC MH 13065 in assay [5] of 0.4 µg/mL (≈ 0.815 µM). In assay [6], the MIC MH 13093 came out at 0.4 µg/mL (≈ 0.815 µM). Besides, in assay [7], the MIC PM 6267 stood at 1.6 µg/mL (≈ 3.26 µM). In assay [8], this compound showed an MIC PM 6391 of no more than 0.1 µg/mL. In assay [9], this compound gave an MIC PM 10775 of 0.4 µg/mL (≈ 0.815 µM). The compound further showed an MIC PM 12080 in [10] of no more than 0.1 µg/mL.
With `CON=C(C)[C@H](NC(=O)c1ccc(C#Cc2ccc(CNCc3ccc(C)cc3)cc2)cc1)C(=O)NO` [Compound 393], in [1], the MIC MH 6357 is 0.8 µg/mL (≈ 1.6 µM). This compound also came in with an MIC MH 6374 in [2] of 1.6 µg/mL (≈ 3.21 µM). In [3], this compound registered an MIC MH 10720 of 0.8 µg/mL (≈ 1.6 µM). Further, in assay [4], the MIC MH 12587 was determined as 0.4 µg/mL (≈ 0.802 µM). The compound further came in with an MIC MH 13065 in assay [5] of 6.3 µg/mL (≈ 12.6 µM). Besides, in [6], the MIC MH 13093 was determined as 6.3 µg/mL (≈ 12.6 µM). The same compound returned an MIC PM 6267 in [7] of 6.3 µg/mL (≈ 12.6 µM). Further, the MIC PM 6391 in [8] came to 0.2 µg/mL (≈ 0.401 µM). Moreover, the MIC PM 10775 in assay [9] came out at 0.8 µg/mL (≈ 1.6 µM). The compound also came in with an MIC PM 12080 in assay [10] of 0.4 µg/mL (≈ 0.802 µM).
`CON=C(C)[C@H](NC(=O)c1ccc(C#Cc2ccc(CNCC3CCCO3)cc2)cc1)C(=O)NO` (some centres unmarked) [Compound 394] had an MIC MH 6357 in assay [1] of 3.1 µg/mL (≈ 6.48 µM). For the same compound, the MIC MH 6374 in assay [2] was found to be 6.3 µg/mL (≈ 13.2 µM). For the same compound, in assay [3], the MIC MH 10720 stood at 1.6 µg/mL (≈ 3.34 µM). For the same compound, the MIC MH 12587 in assay [4] turned out to be 0.8 µg/mL (≈ 1.67 µM). Also, the MIC MH 13065 in assay [5] worked out at 3.1 µg/mL (≈ 6.48 µM). Further, in assay [6], the MIC MH 13093 was 3.1 µg/mL (≈ 6.48 µM). Moreover, in assay [7], the MIC PM 6267 was determined as 6.3 µg/mL (≈ 13.2 µM). Also, the MIC PM 6391 in assay [8] is 0.2 µg/mL (≈ 0.418 µM). This compound also displayed an MIC PM 10775 in assay [9] of 0.8 µg/mL (≈ 1.67 µM). Further, in [10], the MIC PM 12080 is 0.4 µg/mL (≈ 0.836 µM).
